According to BindingDB's records for doi:10.1111/cbdd.12126 (Shaoyang University, 2013):

Molecular target: T1, Polyphenol oxidase 2 (Agaricus bisporus, UniProt O42713)
T1 sequence (O42713 whole entry): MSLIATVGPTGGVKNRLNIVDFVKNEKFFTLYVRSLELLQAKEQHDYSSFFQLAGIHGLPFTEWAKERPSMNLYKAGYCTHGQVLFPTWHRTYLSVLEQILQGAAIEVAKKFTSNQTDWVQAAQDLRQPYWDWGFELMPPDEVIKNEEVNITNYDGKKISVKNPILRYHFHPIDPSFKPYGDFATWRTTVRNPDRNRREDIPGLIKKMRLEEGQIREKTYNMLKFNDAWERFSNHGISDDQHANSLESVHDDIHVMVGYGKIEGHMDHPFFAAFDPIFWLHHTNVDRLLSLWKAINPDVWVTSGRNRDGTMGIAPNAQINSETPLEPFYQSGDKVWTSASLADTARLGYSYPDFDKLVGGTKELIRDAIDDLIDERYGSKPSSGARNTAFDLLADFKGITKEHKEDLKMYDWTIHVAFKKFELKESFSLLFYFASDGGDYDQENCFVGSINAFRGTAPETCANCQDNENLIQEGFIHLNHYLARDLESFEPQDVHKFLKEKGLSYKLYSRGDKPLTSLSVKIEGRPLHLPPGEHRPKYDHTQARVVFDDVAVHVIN
Assay: Spectrophotometric Assay
Details: pH 6.8; 25 °C
Description: All compounds were dissolved in DMSO (final DMSO concentration in test solution was 2.0%). Phosphate buffer, pH 6.8, was use to dilute the DMSO stock solution of test compounds. Thirty units of mushroom tyrosinase (0.5 mg/mL) were first pre-incubated with the compounds, in 50 mM phosphate buffer (pH 6.8), for 10 min at 25°C, followed by addition of L-DOPA (0.5 mM). The enzyme reaction was monitored by measuring the change in absorbance at 475 nm of formation of the DOPA chrome for 1 min. The measurement was performed in triplicate for each concentration and averaged before further calculation.

IC50 | SMILES
110 µM | O=C(/C=C/c1ccccc1)c1ccc(O)cc1O [1-(2,4-dihydroxyphenyl)-3-phenylprop-2-en-1-one (4)]
117 µM | O=C(/C=C/c1ccccc1)c1cccc(Cl)c1 [1-(3-chlorophenyl)-3-phenylprop-2-en-1-one (11)]
142 µM | COc1ccc(C(=O)/C=C/c2ccccc2)cc1 [1-(4-methoxyphenyl)-3-phenylprop-2-en-1-one (6)]
